Laboratory results from article PMC3401594 (International Journal of Pharmaceutics, 2009).
“And” between values parts separate entries of the source, which are not always exact repeats. Identical values can stand only once. Like-named read-outs stand apart in the source and are kept apart here. Marks after values point to notes of the source that are not given here.

Legend:
[1] = molecular target: T1, recombinant human P-gp (Homo sapiens, UniProt P08183)
[2] = in vivo; cited from earlier work
[3] = tested on: P-gp (mdr1a/b) influence on antinociception; design: species or system mice; conditions: mouse, in vivo; for Influence of P-gp ablation on antinociceptive activity: sc
[4] = mouse, in vivo
[5] = molecular target: μ receptor; conditions: read-out: Ki at μ receptor, as determined by DEC, NIDA, ref DEC; cited from earlier work
[6] = tail-flick, hotplate and paraphenylquinone assays; ref DEC, NIDA; cited from earlier work
[7] = molecular target: T1, recombinant human P-gp; conditions: cited from earlier work
[8] = ref Casy and Parfitt, 1986; cited from earlier work
[9] = 20 mg/kg, for 45 min in wild type mice; ref Thompson et al., 2000; cited from earlier work

T1 sequence (P08183 whole entry): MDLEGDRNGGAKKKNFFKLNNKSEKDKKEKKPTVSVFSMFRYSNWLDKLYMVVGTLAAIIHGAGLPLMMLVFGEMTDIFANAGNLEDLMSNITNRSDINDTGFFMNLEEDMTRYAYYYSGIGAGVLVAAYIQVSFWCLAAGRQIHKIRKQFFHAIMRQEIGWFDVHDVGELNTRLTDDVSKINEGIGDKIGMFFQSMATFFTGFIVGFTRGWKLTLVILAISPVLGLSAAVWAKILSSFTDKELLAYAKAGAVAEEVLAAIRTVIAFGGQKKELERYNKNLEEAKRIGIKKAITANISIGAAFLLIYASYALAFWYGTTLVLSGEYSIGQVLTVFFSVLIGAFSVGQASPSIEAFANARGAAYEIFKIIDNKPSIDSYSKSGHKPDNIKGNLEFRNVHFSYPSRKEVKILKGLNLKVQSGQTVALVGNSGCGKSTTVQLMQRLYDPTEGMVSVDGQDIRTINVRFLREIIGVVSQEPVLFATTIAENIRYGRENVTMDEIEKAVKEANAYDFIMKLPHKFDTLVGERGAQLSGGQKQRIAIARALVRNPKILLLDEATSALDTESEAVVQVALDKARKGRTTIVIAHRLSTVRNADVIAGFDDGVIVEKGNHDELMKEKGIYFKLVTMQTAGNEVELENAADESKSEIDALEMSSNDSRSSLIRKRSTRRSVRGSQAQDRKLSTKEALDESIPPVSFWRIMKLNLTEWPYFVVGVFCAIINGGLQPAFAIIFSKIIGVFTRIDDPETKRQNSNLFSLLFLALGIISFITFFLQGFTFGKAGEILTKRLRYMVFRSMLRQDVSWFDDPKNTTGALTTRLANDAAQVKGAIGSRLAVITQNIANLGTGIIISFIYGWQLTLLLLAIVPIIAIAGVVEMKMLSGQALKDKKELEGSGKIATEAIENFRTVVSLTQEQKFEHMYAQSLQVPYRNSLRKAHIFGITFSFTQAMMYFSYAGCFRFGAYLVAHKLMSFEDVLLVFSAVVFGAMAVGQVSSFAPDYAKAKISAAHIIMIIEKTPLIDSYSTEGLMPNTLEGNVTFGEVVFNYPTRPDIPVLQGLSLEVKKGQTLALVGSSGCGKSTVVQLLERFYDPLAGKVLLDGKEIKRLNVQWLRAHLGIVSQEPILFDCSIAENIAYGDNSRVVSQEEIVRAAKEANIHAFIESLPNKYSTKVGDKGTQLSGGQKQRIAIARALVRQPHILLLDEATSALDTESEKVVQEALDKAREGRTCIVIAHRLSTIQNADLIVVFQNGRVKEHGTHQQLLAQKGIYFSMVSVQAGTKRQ

## CN1CC[C@]23c4c5ccc(O)c4O[C@H]2C(=O)CC[C@@]3(O)[C@H]1C5 [Oxymorphone]
[1]
  P-gp affinity status from P-gp ATPase assay: not to be P-gp substrates
[1]; human
  Fold stimulation of basal P-gp-ATPase activity: 1.12 ± 0.12 fold
  Stimulation of P-gp ATPase activity (significance): did not significantly (p > 0.05) stimulate
[2]
  Potency relative to morphine (times as potent): approximately 10 times

## COc1ccc2c3c1O[C@H]1[C@@H](O)C=C[C@H]4[C@@H](C2)N(C)CC[C@@]341 [Codeine]
[1]; human
  Fold stimulation of basal P-gp-ATPase activity: 1.36 ± 0.07 ^b fold
  Rate of ATP consumption versus non-treated control (significance): significantly different (p < 0.05)

## CN1CC[C@]23c4c5ccc(O)c4O[C@H]2CC=C[C@H]3[C@H]1C5 [6-Desoxymorphine]
[3]
  AUEC ratio mdr1a/b (−/−)/mdr1a/b (+/+): 1.14 ± 1.08 and 1.17 ± 0.17
  Maximum %MPE reached: 100%
  Influence of P-gp ablation on antinociceptive activity: no significant influence
[1]
  P-gp affinity status from P-gp ATPase assay: not to be P-gp substrates
[1]; human
  Fold stimulation of basal P-gp-ATPase activity: 1.01 ± 0.11 fold
[4]
  Signs of toxicity: no apparent toxicity
[5]
  Ki: 2.9 nM
[6]
  Potency relative to morphine (times as potent): ~ 10 times

## COc1ccc2c3c1O[C@H]1CC=C[C@H]4[C@@H](C2)N(C)CC[C@]314 [6-Desoxycodeine]
[1]
  P-gp affinity status from P-gp ATPase assay: not to be P-gp substrates
[1]; human
  Fold stimulation of basal P-gp-ATPase activity: 1.31 ± 0.15 fold

## CCOC(=O)C1(c2ccccc2)CCN(C)CC1 [Meperidine]
[3]
  AUEC ratio mdr1a/b (−/−)/mdr1a/b (+/+): 1.14 ± 0.2
  mdr1a/b (+/+) (AUEC): 6752.14 ± 917.94 %MPE × min
  mdr1a/b (−/−) (AUEC): 7678.40 ± 851.59 %MPE × min
  Influence of P-gp ablation on antinociceptive activity: no significant influence
[7]
  Fold stimulation of basal P-gp-ATPase activity: 1.51 ± 0.29 fold
[8]
  Intravenous to intraventricular ED10 ratio: 8.5

## C=CCN1CC[C@]23c4c5ccc(O)c4O[C@H]2C(=O)CC[C@@]3(O)[C@H]1C5 [Naloxone]
[1]; human
  Fold stimulation of basal P-gp-ATPase activity: 1.25 ± 0.11 fold
  Stimulation of P-gp ATPase activity (significance): did not significantly (p > 0.05) stimulate

## CN1CC[C@]23c4c5ccc(O)c4O[C@H]2[C@@H](O)C=C[C@H]3[C@H]1C5 [Morphine]
[9]
  %MPE reached: ~ 95 %MPE
